“Also recorded” adds a separate entry of the source.
Experiments:
spinal cord neurons = assay: Neuron survival (MAP-2+ count) in mixed spinal cord cultures grown in SCM, glutamate toxicity; format: cell-based, rat; settings: for glutamate-elicited neuronal cell death, dose dependence: various concentrations of glutamate
Procedure: Spinal cords were dissected from embryonic day 16 (E16) rat embryos. Meninges were removed, and the cords were dissociated with gentle trituration. Cells were plated at a density of 350 neurons/mm^2.
(§1) When cells were treated with glutamate, the medium was replaced with solutions of glutamate in Locke's buffer, with or without UA, for 1 hour at 37° C. In control cultures, the medium was replaced with Locke's buffer. After 1 hour, glutamate solutions were changed to SCM or NB and UA was added at the same concentration. In all cases, same amount of Locke's buffer was added to control as vehicle. When the cultures were treated with Sin-1, the drug was added directly to the medium with or without UA, and the same amount of PBS and Locke's buffer were added to control as vehicle. In all cases, cells were incubated for another 24 hours at 37° C. before being fixed or harvested.
(§2) Cells were fixed with 4% paraformaldehyde for 30 minutes at room temperature. After washing with PBS, the cultures were incubated with anti-MAP-2 (1:500), anti-GFAP (1:1000), anti-CNPase (1:500), anti-vimentin (1:1000) or anti-CD11 (1:500) for 2 hours at room temperature. Positive cells were then visualized with Cy2 anti-mouse secondary antibodies.
(§3) For each well, pictures were taken for 10 random fields at a magnification of 100×. Cell number (as indicated by the appropriate immunostain) in each of the 10 pictures was counted by an experimenter blind to the condition. Cell numbers in control and treated groups were compared with one-way analysis of variance (ANOVA) using the Instat software program (Graph Pad).
Glutamate is the major physiological agent that mediates cell death after spinal cord injury. To examine the survival of spinal cord neurons in an in vitro model of SCI, mixed cell cultures derived from embryonic 16 (E16) rat spinal cords were treated with a range of concentrations of glutamate. These cells were grown in serum-containing medium (SCM) for 6 days (DIV 6) before being treated with various concentrations of glutamate for 1 hour. The brief exposure to high levels of glutamate mimics its temporary up-regulation after SCI. After glutamate was removed, cells were kept in SCM for another 24 hours before the cultures were fixed and immunostained. The numbers of surviving neurons were monitored with immunohistochemical labeling of MAP-2, a marker for neurons.
To determine whether UA can be used to prevent glutamate toxicity, initial experiments monitored the effects of UA on spinal cord neuron survival during basal conditions. DIV 6 cultures were treated with different concentrations of UA for 24 hours before being fixed and immunostained, and the numbers of neurons were counted. […] The results were derived from 2 independent experiments (n=6).
Further experiments were designed to reveal if UA could reduce neuronal cell death after glutamate exposure. Cells were treated with 500 μM glutamate with or without various concentrations of UA. UA was applied with glutamate and the same concentration of UA was added after the removal of glutamate. […] With high concentrations of UA, glutamate-promoted neuronal cell death was abolished (FIG. 3B). The results were derived from 6 independent experiments (n=12).

[1] = system: pure spinal cord neuron cultures; assay: Neuron survival (MAP-2+ count) in pure spinal cord neuron cultures, glutamate toxicity; format: cell-based, rat; settings: for neuron loss: 1 hour
Procedure: (§4) To grow pure spinal neuron cultures, SCM was changed to Neurobasal medium (NB; Neurobasal medium (Gibco) supplemented with B-27, penicillin, and streptomycin) at 24 hours after plating. After an additional 24 hours, cytosine arabinoside (Ara-C, 5 μM) was added to these cultures for 3 days after which the Ara-C containing media was changed to fresh NB media. Cells were treated 24 hours later.
as §1, §2, §3
To address this question, pure spinal cord neuron cultures were established. Twenty four hours after plating in SCM, SCM was changed to NB medium, which optimizes neuronal growth. Ara-C (5 μM) was added to the cultures after another 24 hours to eliminate the glial populations. The medium was changed after 3 days, and cells were treated 24 hours later. This procedure eliminated non-neuronal cell types in the cultures with only neurons surviving.
To determine the sensitivity of pure neuronal and mixed cultures to glutamate, pure spinal cord neuron cultures were established, and after 6 days, these cells were treated with glutamate for 1 hour. Cells were fixed after 24 hours and stained with anti-MAP-2 antibody. (A) Control cultures and cells treated with 2, 10, and 500 μM glutamate are illustrated. […] Results were derived from 3 independent experiments (n=7). ***p<0.001 by nonparametric ANOVA followed by Dunn's analysis comparing glutamate treated groups with control. Scale bar, 50 μm.
To examine whether UA can directly reduce glutamate toxicity in pure neuronal cultures, cells were treated with or without various concentrations of UA either concurrent with or at the termination of exposure to 10 μM glutamate. More specifically, six days after plating, pure spinal cord neuron cultures were treated with glutamate (10 or 500 μM) for 1 hour. UA (100 or 200 μM) was added with and after glutamate treatments. Cells were fixed after 24 hours and numbers of neurons that survived (MAP-2+) were counted. Results shown in FIG. 6 were derived from 2 independent experiments (n=6). ***p<0.001 by nonparametric ANOVA followed by Dunn's analysis for multiple comparisons comparing treated groups with control.

[2] = system: pure spinal cord neuron cultures; assay: Sin-1 (peroxynitrite donor) toxicity in pure spinal cord neuron cultures; format: cell-based, rat; settings: Sin-1 250 μM 1-hr
Procedure: as §4
THA was dissolved in PBS.
as §1
Results were derived from 2 independent experiments (n=6). ***p<0.001 by parametric ANOVA followed by Bonferroni Multiple Comparisons Test.

[3] = system: spinal cord neurons co-cultured with astroglia; assay: Astroglia re-plated onto pure spinal cord neuron cultures, glutamate toxicity; format: cell-based, rat; settings: glutamate 50 μM 1 hour, then 100 μM UA
Procedure: Spinal cord astroglial cultures were derived from postnatal day 1 rats using a modified approach from MaCarthy and de Vellis (McCarthy and deVellis 1980). Spinal cords were dissected and dissociated with trituration. Cells were plated in tissue culture flasks at density of 1000 cells/mm^2. Cultures were grown in NM-15 medium (84.4% MEM, 15% Fetal Bovine Serum, 0.6% glucose, supplemented with penicillin and streptomycin) for 9 days. Medium was changed every 3 days. The flasks were then shaken at 400×rpm for 20 minutes before the medium was changed and the floating cells (mostly microglia) were washed away. The flasks were again shaken overnight at 250×rpm to remove attached oligodendrocytes and remaining microglia. Following shaking, floating cells were washed away and medium was changed. Ara-C was added to final concentration of 10 μM to reduce the number of undifferentiated cells. Cultures were grown for 3 additional days before being trypsinized and re-plated at a density of 500 cells/mm^2 in SCM. These cultures only contain GFAP+ and vimentin+ astroglia. Staining for MAP-2 and CNPase were negative.
To determine the contribution of direct astroglial cell presence to the neuroprotective effects of UA, astroglial cultures were grown for 5 days in SCM before the cells were trypsinized and plated onto pure spinal cord neuron cultures grown for 5 days in vitro (DIV 5). […]

EAAT-1 = assay: Western blot of EAAT-1 protein in mixed spinal cord cultures; format: cell-based, rat
Procedure: (§5) At DIV 7, control and treated mixed spinal cord cultures grown on 35 mm dishes were scraped and protein was harvested in TEEN (25 mM Tris-HCl, pH 7.4, 1 mM EDTA, 1 mM EGTA, 100 mM NaCl) supplemented with 1 mM phenylmethylsulfonyl fluoride (PMSF). Proteins were resolved on 10% SDS-polyacrylamide gels and transferred to PVDF membranes.
(§6) After blocking with 3% bovine serum albumin (BSA), the membrane was incubated with primary antibodies: anti-EAAT-1 (goat polyclonal antibody from Santa Cruz Inc., 1:500) overnight at 4° C.; anti-EAAT-2 (goat polyclonal antibody from Santa Cruz Inc., 1:500) overnight at 4° C.; or anti-actin (mouse monoclonal antibody from Sigma-Aldrich, 1:2000) for 1 hour at room temperature (RT). After washing, the secondary antibody, horseradish peroxidase linked IgG (anti-goat for EAAT-1 and EAAT-2, anti-mouse for actin), was applied at 1:2000 for one hour at RT. The bands were visualized using the enhanced chemiluminescence (ECL) system (Amersham Biosci.).
(§7) The results of the Western blot experiments were analyzed with Universal Hood Gel Documentation Systems and Quantity One V4.2.1 software (BIO-RAD).
(§8) Additional studies examined whether UA affects protein expression of EAAT-1 and EAAT-2. […]

EAAT-2 = assay: Western blot of EAAT-2 protein in mixed spinal cord cultures; format: cell-based, rat; settings: UA 100 μM 24 hours, glutamate, or glutamate and UA
Procedure: as §5, §6, §7, §8

[4] = system: mouse spinal cord neuron cultures; settings: mouse spinal cord neuron cultures treated with UA; cited from earlier work
spinal cord injury = settings: pre-treatment and concurrent treatment with UA; cited from earlier work
[5] = at normal human levels; cited from earlier work

## O=c1[nH]c(=O)c2[nH]c(=O)[nH]c2[nH]1 [UA, uric acid]
Spinal cord neurons; 100 μM UA, cultures grown in SCM
  cell loss elicited by glutamate at 100 μM UA: reversed the cell loss
Spinal cord neurons; 500 μM glutamate 1 hour, various concentrations of UA, mixed cultures
  effect on glutamate toxicity, UA added with and after glutamate: blocked glutamate toxicity in a dose-dependent manner
Spinal cord neurons; 500 μM glutamate, high concentrations of UA added with and after glutamate, mixed cultures
  glutamate-promoted neuronal cell death at high concentrations of UA: abolished
Spinal cord neurons; UA different concentrations, 24 hours, DIV 6 mixed cultures, no glutamate
  effect on survival of spinal cord neurons during basal conditions: no effect on the survival of spinal cord neurons; also recorded: does not affect survival of spinal cord neurons
[1]; UA 100 or 200 μM
  effect of UA itself on neuron survival: no effect on neuron survival
[1]; UA 100 or 200 μM with and after glutamate (10 or 500 μM, 1 hour)
  protection against glutamate toxicity: did not show any protection against glutamate toxicity; also recorded: did not alter the neuron loss; also recorded: did not protect spinal cord neurons against glutamate toxicity; also recorded: does not decrease glutamate toxicity
[2]; UA 100 μM added after
  toxicity elicited by Sin-1, UA added after Sin-1: did not elicit a reversal of toxicity
[2]; UA 100 μM concurrent
  toxicity elicited by Sin-1, UA concurrently present: significantly reversed; also recorded: reduces damages elicited by Sin-1 treatment
[3]
  toxic effects of glutamate in astroglia/neuron combined cultures: blocked the toxic effects of glutamate; also recorded: reinstates the effects of UA in reducing glutamate toxicity
EAAT-1; UA 100 μM, 24 hours, mixed cultures DIV 6
  EAAT-1 protein expression normalized to actin: upregulated
EAAT-1; glutamate 500 μM 1 hour, then UA 100 μM
  EAAT-1 protein expression, glutamate prior to UA: did not influence UA actions in increasing EAAT-1 protein expression
EAAT-2
  EAAT-2 protein expression normalized to actin: not altered
[4]
  peroxynitrite toxicity: blocked peroxynitrite toxicity
Spinal cord injury
  secondary damage: reduced secondary damage
[5]
  carbon dioxide binding with peroxynitrite, times faster than UA: 920 times

## N[C@@H](CCC(=O)O)C(=O)O [glutamate]
Spinal cord neurons; glutamate 500 μM and 1 mM, 1 hour, mixed cultures, fixed 24 hours later
  neurons that did not survive: approximately 40%
Spinal cord neurons; mixed cultures, 1 hour
  glutamate-elicited neuronal cell death, dose dependence: increased in a dose-dependent manner
Spinal cord neurons; mixed cultures, 1 hour, listed as Glutamate
  glutamate-elicited neuronal cell death, dose dependence: induces loss of spinal cord neurons in a dose-dependent manner
[1]; glutamate 10 μM
  neuron loss: more than 80%
[1]; glutamate 500 μM
  neuron loss: essentially eliminated all neurons; also recorded: almost total neuron elimination
[1]; glutamate 1 hour
  cell loss, dose dependence: dose-dependent cell loss

Reference: patent publication US20130323753A1, “METHODS AND KITS FOR IDENTIFICATION OF ANTI-EXCITOTOXIC COMPOUNDS” (RUTGERS, THE STATE UNIVERSITY OF NEW JERSEY, priority 2007, published 2013)
